Earlier results in patent US9266789B2, “Liquid dicyandiamide and/or alkyl thiophosphoric triamide compositions and their use in agricultural applications” (RHODIA OPERATIONS, priority 2012, dated 2016).

- solubility in water: about 41 g/l
Compound: N#CNC(=N)N [Dicyandiamide, 2-cyanoguanidine]
